Source: PubChem BioAssay (NCI)
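Dose response: 5 concentrations. Exposure: 48 h. Format: 96-well plates. Endpoint: linear interpolation; highest concentration if not reached. TGI is the concentration that stops growth completely.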

Tests used:
Test in all cases: growth of human tumour cells (NCI), 48 h
PC-3 prostate = tested on: PC-3 prostate
SR leukemia = tested on: SR leukemia
HCC-2998 colon = tested on: HCC-2998 colon
SK-MEL-2 melanoma = tested on: SK-MEL-2 melanoma
786-0 renal = tested on: 786-0 renal
MCF7 breast = tested on: MCF7 breast
MDA-MB-231 breast = tested on: MDA-MB-231 breast
SK-MEL-28 melanoma = tested on: SK-MEL-28 melanoma
OVCAR-4 ovarian = tested on: OVCAR-4 ovarian
HOP-92 NSCLC = tested on: HOP-92 NSCLC
SW-620 colon = tested on: SW-620 colon
EKVX NSCLC = tested on: EKVX NSCLC
KM12 colon = tested on: KM12 colon
CCRF-CEM leukemia = tested on: CCRF-CEM leukemia
U251 CNS = tested on: U251 CNS
SF-268 CNS = tested on: SF-268 CNS
MDA-MB-435 = tested on: MDA-MB-435
ACHN renal = tested on: ACHN renal
SF-539 CNS = tested on: SF-539 CNS
IGROV1 ovarian = tested on: IGROV1 ovarian
OVCAR-3 ovarian = tested on: OVCAR-3 ovarian
RPMI-8226 leukemia = tested on: RPMI-8226 leukemia
SK-MEL-5 melanoma = tested on: SK-MEL-5 melanoma
NCI-H460 lung = tested on: NCI-H460 lung
HOP-62 NSCLC = tested on: HOP-62 NSCLC
SN12C renal = tested on: SN12C renal
HCT-116 colon = tested on: HCT-116 colon
K-562 leukemia = tested on: K-562 leukemia
T-47D breast = tested on: T-47D breast
MALME-3M melanoma = tested on: MALME-3M melanoma
MOLT-4 leukemia = tested on: MOLT-4 leukemia
OVCAR-8 ovarian = tested on: OVCAR-8 ovarian
TK-10 renal = tested on: TK-10 renal
HCT-15 colon = tested on: HCT-15 colon
SF-295 CNS = tested on: SF-295 CNS
M14 melanoma = tested on: M14 melanoma
SNB-19 CNS = tested on: SNB-19 CNS
OVCAR-5 ovarian = tested on: OVCAR-5 ovarian
LOX IMVI melanoma = tested on: LOX IMVI melanoma
A549 NSCLC = tested on: A549 NSCLC
COLO 205 colon = tested on: COLO 205 colon
UACC-62 melanoma = tested on: UACC-62 melanoma
UO-31 renal = tested on: UO-31 renal
A498 renal = tested on: A498 renal
UACC-257 melanoma = tested on: UACC-257 melanoma
SK-OV-3 ovarian = tested on: SK-OV-3 ovarian
MDA-N = tested on: MDA-N
NCI/ADR-RES ovarian = tested on: NCI/ADR-RES ovarian
CAKI-1 renal = tested on: CAKI-1 renal
NCI-H23 lung = tested on: NCI-H23 lung
NCI-H522 lung = tested on: NCI-H522 lung
RXF 393 renal = tested on: RXF 393 renal
DU-145 prostate = tested on: DU-145 prostate
BT-549 breast = tested on: BT-549 breast
HT29 colon = tested on: HT29 colon
HS 578T breast = tested on: HS 578T breast
HL-60(TB) leukemia = tested on: HL-60(TB) leukemia
SNB-75 CNS = tested on: SNB-75 CNS
NCI-H226 lung = tested on: NCI-H226 lung

## CCN(CC)C(=S)SC(C(=O)Nc1nnc(-c2ccc(Cl)cc2)o1)c1ccccc1 (stereo not drawn)
PC-3 prostate
  TGI: 28.3 µM
SR leukemia
  TGI: 38.3 µM
HCC-2998 colon
  TGI: 16.9 µM
SK-MEL-2 melanoma
  TGI: > 100 µM
786-0 renal
  TGI: 39 µM
MCF7 breast
  TGI: > 100 µM
MDA-MB-231 breast
  TGI: 77.7 µM
SK-MEL-28 melanoma
  TGI: 33.5 µM
OVCAR-4 ovarian
  TGI: 18.6 µM
HOP-92 NSCLC
  TGI: 51.5 µM
SW-620 colon
  TGI: 35.9 µM
EKVX NSCLC
  TGI: 29.4 µM
KM12 colon
  TGI: 58.2 µM
CCRF-CEM leukemia
  TGI: 9.82 µM
U251 CNS
  TGI: 65.3 µM
SF-268 CNS
  TGI: 67 µM
MDA-MB-435
  TGI: 36 µM
ACHN renal
  TGI: 26.3 µM
SF-539 CNS
  TGI: 30.5 µM
IGROV1 ovarian
  TGI: 8.33 µM
OVCAR-3 ovarian
  TGI: 10.2 µM
RPMI-8226 leukemia
  TGI: 22 µM
SK-MEL-5 melanoma
  TGI: 19.4 µM
NCI-H460 lung
  TGI: 84.1 µM
HOP-62 NSCLC
  TGI: 43.1 µM
SN12C renal
  TGI: 38.2 µM
HCT-116 colon
  TGI: 13.5 µM
K-562 leukemia
  TGI: 42.4 µM
T-47D breast
  TGI: 59.7 µM
MALME-3M melanoma
  TGI: 32.7 µM
MOLT-4 leukemia
  TGI: > 100 µM
OVCAR-8 ovarian
  TGI: > 100 µM
TK-10 renal
  TGI: 62.3 µM
HCT-15 colon
  TGI: 18.9 µM
SF-295 CNS
  TGI: 48.2 µM
M14 melanoma
  TGI: 27.6 µM
SNB-19 CNS
  TGI: > 100 µM
OVCAR-5 ovarian
  TGI: 26.6 µM
LOX IMVI melanoma
  TGI: 40.2 µM
A549 NSCLC
  TGI: 52.1 µM
COLO 205 colon
  TGI: 14.5 µM
UACC-62 melanoma
  TGI: 23.6 µM
UO-31 renal
  TGI: 52.1 µM
A498 renal
  TGI: 41.4 µM
UACC-257 melanoma
  TGI: > 100 µM
SK-OV-3 ovarian
  TGI: 31.4 µM
MDA-N
  TGI: 50.3 µM
NCI/ADR-RES ovarian
  TGI: 30.5 µM
CAKI-1 renal
  TGI: 51.8 µM
NCI-H23 lung
  TGI: > 100 µM
NCI-H522 lung
  TGI: 26.6 µM
RXF 393 renal
  TGI: 48.8 µM
DU-145 prostate
  TGI: 94 µM
BT-549 breast
  TGI: 66.7 µM
HT29 colon
  TGI: 16.9 µM
HS 578T breast
  TGI: > 100 µM
HL-60(TB) leukemia
  TGI: > 100 µM

## Cc1n[nH]c2ccccc2c1=O
PC-3 prostate
  TGI: > 100 µM
SR leukemia
  TGI: > 100 µM
SK-MEL-2 melanoma
  TGI: > 100 µM
786-0 renal
  TGI: > 100 µM
MCF7 breast
  TGI: > 100 µM
MDA-MB-231 breast
  TGI: > 100 µM
SK-MEL-28 melanoma
  TGI: > 100 µM
OVCAR-4 ovarian
  TGI: > 100 µM
HOP-92 NSCLC
  TGI: > 100 µM
SW-620 colon
  TGI: > 100 µM
EKVX NSCLC
  TGI: > 100 µM
KM12 colon
  TGI: > 100 µM
U251 CNS
  TGI: > 100 µM
SF-268 CNS
  TGI: > 100 µM
MDA-MB-435
  TGI: > 100 µM
ACHN renal
  TGI: > 100 µM
SF-539 CNS
  TGI: > 100 µM
IGROV1 ovarian
  TGI: > 100 µM
OVCAR-3 ovarian
  TGI: > 100 µM
RPMI-8226 leukemia
  TGI: > 100 µM
SK-MEL-5 melanoma
  TGI: > 100 µM
NCI-H460 lung
  TGI: > 100 µM
HOP-62 NSCLC
  TGI: > 100 µM
SN12C renal
  TGI: > 100 µM
HCT-116 colon
  TGI: > 100 µM
K-562 leukemia
  TGI: > 100 µM
T-47D breast
  TGI: > 100 µM
MALME-3M melanoma
  TGI: > 100 µM
MOLT-4 leukemia
  TGI: > 100 µM
SNB-75 CNS
  TGI: > 100 µM
OVCAR-8 ovarian
  TGI: > 100 µM
TK-10 renal
  TGI: > 100 µM
HCT-15 colon
  TGI: > 100 µM
SF-295 CNS
  TGI: > 100 µM
M14 melanoma
  TGI: > 100 µM
SNB-19 CNS
  TGI: > 100 µM
OVCAR-5 ovarian
  TGI: > 100 µM
LOX IMVI melanoma
  TGI: > 100 µM
A549 NSCLC
  TGI: > 100 µM
COLO 205 colon
  TGI: > 100 µM
UACC-62 melanoma
  TGI: > 100 µM
UO-31 renal
  TGI: > 100 µM
A498 renal
  TGI: > 100 µM
UACC-257 melanoma
  TGI: > 100 µM
SK-OV-3 ovarian
  TGI: > 100 µM
MDA-N
  TGI: > 100 µM
NCI/ADR-RES ovarian
  TGI: > 100 µM
NCI-H226 lung
  TGI: > 100 µM
CAKI-1 renal
  TGI: > 100 µM
NCI-H23 lung
  TGI: > 100 µM
NCI-H522 lung
  TGI: > 100 µM
RXF 393 renal
  TGI: > 100 µM
DU-145 prostate
  TGI: > 100 µM
BT-549 breast
  TGI: > 100 µM
HT29 colon
  TGI: > 100 µM
HS 578T breast
  TGI: > 100 µM
